Data taken from publication PMC12288609 (Bioorganic & medicinal chemistry letters, 2024).
Where two headings read alike, the source gives them in different places. Marks after values point to notes of the source that are not given here.

Tests used:
HUVECs [1] = conditions: cited from earlier work; for Tube formation IC50: endothelial cell tube formation assay, n.i. = no inhibition, tested at 10–100 μM without significant antiangiogenic activity
[2] = Distribution coefficient at pH 7.4 by HPLC-based method; type: physicochemical; conditions: pH 7.4, estimated by an HPLC-based method; for chromatographic logD: HPLC-based method (chromatographic retention), read-out: elogD7.4
[3] = biological target: human TBD (residues 319–425 of human CRBN); set-up: method as in PMID 33310190; conditions: affinity to human TBD, n.b. = no significant CRBN binding, cited from earlier work
HUVECs [4] = assay: CCK-8 cell proliferation assay, HUVEC; type: cell-based, human; conditions: 48 h
Procedure: (§1) HUVEC cells were cultured as described.[13]
(§2) [19] For the cell proliferation assay, HUVEC (15,000 cells/well) and MM1.S (20,000 cells/well) cells were seeded in a 96-well plate in 50 μL/well and allowed to incubate overnight at 37 °C in 5% CO2. An equal amount of treatment media containing the vehicle (0.5% DMSO), or the test compound was then plated on top of the seeded for 48 hours (HUVEC) or 72 hours (MM1.S). Cell proliferation was evaluated by adding 10 μL of Cell Counting Reagent-8 (CCK-8; Dojindo Laboratories, Rockville, MD) to each well and incubated for 2 hours. Plates were read at absorbance of 450 nm on a microplate reader (SpectraMax iD3, Molecular Devices, San Jose, CA).

[5] = IAM chromatography, chromatographic hydrophobicity index; type: physicochemical; conditions: pH 7.4 mobile phase
Procedure: Before determining neosubstrate degradation, an obvious effect of fluorination was experimentally specified in this study, i.e., the alteration of lipophilicity. Distribution coefficients at pH 7.4 were determined by an HPLC-based method.[14] As expected, the lipophilicity (elogD7.4) increased due to the introduction of fluorine, and elogD differences were in the range of 0.8 to 1.2 (Table 1). […] The exchange of the glutarimide in 1, 2, 5, and 6 by the barbituric acid unit in 3, 4, 7, and 8 increased lipophilicity by elogD differences of 1.3 to 1.7. Drug-membrane interactions were assessed by a high-throughput HPLC method on an Immobilized Artificial Membrane (IAM) column consisting of monolayers of phospholipids covalently bound to silica particles.[15]
[16] IAM chromatography was performed with a Regis IAM.PC.DD2 column (100 × 4.6 mm, 10 μm, 300 Å) equipped with a guard cartridge at 25 °C as described.[14] Mobile phase A was 50 mM NH4OAc, pH 7.4, mobile phase B was MeCN. The retention times were determined with a gradient of 0 to 95% MeCN from 0 to 6 min, which was kept at 95% until 6.5 min, then dropped to 0% from 6.5 to 7 min, and finally kept at 0% until 9 min. The mobile phase flow rate was 1.5 mL/min. A calibration was performed by plotting the retention times of paracetamol, acetanilide, acetophenone, propiophenone, butyrophenone, valerophenone, and octanophenone against their literature CHI values.[15].

SALL4 = SALL4 (Homo sapiens, UniProt Q96SW2+Q9UJQ4); assay: SALL4 degradation in HuH6 cells, Western blot; conditions: 16 h; for Neosubstrate degradation (%) SALL4: 1.0 μM, Western blot densitometry normalized to DMSO; for SALL4 degradation (Western blot, in words): 1.0 μM (0.1 μM in Fig. S2)
Chain of SALL4 (Q9UJQ4 whole entry): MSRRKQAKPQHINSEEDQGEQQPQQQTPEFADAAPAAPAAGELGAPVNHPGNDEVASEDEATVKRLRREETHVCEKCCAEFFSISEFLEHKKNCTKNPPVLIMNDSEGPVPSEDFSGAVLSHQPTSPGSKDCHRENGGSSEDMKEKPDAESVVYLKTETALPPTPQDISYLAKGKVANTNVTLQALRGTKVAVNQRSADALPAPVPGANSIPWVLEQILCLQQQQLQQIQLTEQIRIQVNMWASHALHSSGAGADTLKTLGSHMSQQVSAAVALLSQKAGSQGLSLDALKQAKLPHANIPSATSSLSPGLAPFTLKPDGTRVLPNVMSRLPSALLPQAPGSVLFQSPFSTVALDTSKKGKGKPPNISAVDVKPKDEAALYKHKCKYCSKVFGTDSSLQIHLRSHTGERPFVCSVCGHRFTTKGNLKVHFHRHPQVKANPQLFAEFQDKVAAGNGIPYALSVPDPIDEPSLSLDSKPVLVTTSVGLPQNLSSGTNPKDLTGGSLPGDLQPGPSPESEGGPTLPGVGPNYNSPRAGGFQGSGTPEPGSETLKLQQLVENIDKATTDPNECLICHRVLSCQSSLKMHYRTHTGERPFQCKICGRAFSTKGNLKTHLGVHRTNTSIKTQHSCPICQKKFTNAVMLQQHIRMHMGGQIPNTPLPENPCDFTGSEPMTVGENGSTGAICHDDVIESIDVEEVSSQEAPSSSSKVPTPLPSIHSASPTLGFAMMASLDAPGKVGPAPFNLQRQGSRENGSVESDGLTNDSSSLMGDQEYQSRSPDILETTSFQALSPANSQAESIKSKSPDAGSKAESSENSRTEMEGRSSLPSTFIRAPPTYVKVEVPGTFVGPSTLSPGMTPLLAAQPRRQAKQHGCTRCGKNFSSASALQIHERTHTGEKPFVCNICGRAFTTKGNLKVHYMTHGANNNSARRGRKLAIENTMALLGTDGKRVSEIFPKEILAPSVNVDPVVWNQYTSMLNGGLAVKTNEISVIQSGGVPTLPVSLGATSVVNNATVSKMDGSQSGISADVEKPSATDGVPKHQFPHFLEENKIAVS
Chain of SALL4 (Q96SW2 whole entry): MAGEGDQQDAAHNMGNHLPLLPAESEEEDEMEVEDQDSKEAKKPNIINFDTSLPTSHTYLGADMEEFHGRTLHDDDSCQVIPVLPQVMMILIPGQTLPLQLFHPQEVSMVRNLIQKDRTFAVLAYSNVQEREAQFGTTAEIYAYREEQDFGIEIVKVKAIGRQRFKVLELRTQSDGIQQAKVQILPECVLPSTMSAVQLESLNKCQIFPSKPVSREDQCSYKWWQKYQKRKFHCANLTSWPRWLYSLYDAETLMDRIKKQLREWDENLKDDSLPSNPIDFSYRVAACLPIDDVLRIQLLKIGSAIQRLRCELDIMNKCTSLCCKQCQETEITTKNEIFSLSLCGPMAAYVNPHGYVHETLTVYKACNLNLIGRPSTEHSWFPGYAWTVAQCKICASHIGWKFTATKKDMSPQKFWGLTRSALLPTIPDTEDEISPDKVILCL
Chain of SALL4 (Q16531 whole entry partner): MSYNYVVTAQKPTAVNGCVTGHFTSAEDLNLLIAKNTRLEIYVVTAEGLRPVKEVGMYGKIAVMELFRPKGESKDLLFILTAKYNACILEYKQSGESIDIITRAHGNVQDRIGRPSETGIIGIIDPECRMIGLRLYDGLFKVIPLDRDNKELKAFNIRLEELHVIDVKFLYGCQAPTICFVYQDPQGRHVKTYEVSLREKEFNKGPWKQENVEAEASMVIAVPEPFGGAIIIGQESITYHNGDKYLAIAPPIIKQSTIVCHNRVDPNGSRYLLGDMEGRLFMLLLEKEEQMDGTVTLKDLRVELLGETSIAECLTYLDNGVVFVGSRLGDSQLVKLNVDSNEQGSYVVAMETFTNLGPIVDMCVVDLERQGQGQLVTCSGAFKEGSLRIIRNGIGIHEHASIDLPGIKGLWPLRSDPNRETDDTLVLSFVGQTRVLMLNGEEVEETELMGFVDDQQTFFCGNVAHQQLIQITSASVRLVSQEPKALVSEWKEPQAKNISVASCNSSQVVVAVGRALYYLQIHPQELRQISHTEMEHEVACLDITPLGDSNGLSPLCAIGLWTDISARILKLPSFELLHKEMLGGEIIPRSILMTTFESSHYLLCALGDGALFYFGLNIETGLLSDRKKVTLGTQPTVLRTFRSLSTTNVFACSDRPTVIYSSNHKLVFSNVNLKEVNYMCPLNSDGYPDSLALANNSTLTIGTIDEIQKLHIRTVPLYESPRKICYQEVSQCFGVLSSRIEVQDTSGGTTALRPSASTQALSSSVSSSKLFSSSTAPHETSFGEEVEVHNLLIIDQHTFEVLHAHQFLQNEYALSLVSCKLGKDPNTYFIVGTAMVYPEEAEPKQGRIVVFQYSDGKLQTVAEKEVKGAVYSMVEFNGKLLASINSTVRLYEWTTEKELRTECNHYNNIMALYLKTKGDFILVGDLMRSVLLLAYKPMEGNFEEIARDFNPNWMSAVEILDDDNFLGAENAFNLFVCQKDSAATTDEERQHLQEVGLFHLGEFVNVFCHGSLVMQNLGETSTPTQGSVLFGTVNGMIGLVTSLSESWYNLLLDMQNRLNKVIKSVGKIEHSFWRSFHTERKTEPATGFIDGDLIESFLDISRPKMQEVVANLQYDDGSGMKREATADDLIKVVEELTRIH
Chain of SALL4 (Q13619 whole entry partner): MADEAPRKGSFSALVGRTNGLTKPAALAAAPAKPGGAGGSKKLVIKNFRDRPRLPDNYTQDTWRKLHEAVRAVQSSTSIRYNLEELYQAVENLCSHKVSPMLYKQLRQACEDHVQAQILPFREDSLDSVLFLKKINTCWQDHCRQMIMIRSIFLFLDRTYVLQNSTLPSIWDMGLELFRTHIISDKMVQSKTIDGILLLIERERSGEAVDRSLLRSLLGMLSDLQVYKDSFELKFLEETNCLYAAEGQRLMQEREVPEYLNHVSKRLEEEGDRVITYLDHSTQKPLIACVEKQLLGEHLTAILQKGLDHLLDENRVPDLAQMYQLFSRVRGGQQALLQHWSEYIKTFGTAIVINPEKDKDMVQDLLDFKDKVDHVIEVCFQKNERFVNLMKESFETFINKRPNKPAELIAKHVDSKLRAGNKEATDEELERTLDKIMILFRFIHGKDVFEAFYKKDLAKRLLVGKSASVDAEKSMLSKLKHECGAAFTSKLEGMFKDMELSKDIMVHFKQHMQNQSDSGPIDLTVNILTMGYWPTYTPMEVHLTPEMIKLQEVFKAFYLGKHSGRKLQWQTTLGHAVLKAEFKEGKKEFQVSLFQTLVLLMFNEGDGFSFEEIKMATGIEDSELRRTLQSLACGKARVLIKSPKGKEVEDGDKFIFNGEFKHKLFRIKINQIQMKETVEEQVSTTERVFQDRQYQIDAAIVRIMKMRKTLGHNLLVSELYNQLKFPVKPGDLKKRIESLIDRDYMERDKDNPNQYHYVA
Chain of SALL4 (P62877 whole entry partner): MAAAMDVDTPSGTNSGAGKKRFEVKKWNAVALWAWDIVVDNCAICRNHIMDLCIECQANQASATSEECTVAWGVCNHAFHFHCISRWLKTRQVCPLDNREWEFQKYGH

[6] = system: multiple myeloma MM1.S cells; assay: CCK-8 cell proliferation assay, MM1.S; type: cell-based; conditions: 10 μM, 72 h
Procedure: as §1, §2

HUVECs [7] = assay: Endothelial cell tube formation assay
IKZF3 = IKZF3 (Homo sapiens, UniProt Q96SW2+Q9UKT9); assay: IKZF3 degradation in MM.1S cells, Western blot; conditions: 16 h; for Neosubstrate degradation (%) IKZF3: 1.0 μM, Western blot densitometry normalized to DMSO; for IKZF3 degradation (Western blot, in words): 1.0 μM (0.1 μM in Fig. S2)
Chain of IKZF3 (Q9UKT9 whole entry): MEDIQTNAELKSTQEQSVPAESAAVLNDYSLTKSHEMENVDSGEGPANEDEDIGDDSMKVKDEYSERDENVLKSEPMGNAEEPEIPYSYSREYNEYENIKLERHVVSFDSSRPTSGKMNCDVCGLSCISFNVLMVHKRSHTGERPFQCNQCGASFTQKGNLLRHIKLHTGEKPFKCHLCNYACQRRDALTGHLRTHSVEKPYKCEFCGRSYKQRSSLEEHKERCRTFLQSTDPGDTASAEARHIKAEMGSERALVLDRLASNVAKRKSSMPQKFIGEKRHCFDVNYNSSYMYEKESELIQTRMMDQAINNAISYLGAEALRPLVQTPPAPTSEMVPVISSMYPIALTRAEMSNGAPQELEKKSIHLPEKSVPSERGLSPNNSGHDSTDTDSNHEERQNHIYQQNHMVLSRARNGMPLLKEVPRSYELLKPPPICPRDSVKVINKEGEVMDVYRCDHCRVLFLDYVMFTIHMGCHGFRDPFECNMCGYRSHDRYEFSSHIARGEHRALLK
Chain of IKZF3 (Q96SW2 whole entry): as the sequence (Q96SW2 whole entry) above
Chain of IKZF3 (Q16531 whole entry partner): as the sequence (Q16531 whole entry partner) above
Chain of IKZF3 (Q13619 whole entry partner): as the sequence (Q13619 whole entry partner) above
Chain of IKZF3 (P62877 whole entry partner): as the sequence (P62877 whole entry partner) above

[8] = Metabolic stability in human liver microsomes
Procedure: Metabolic stability analyses in human liver microsomes were performed by Pharmacelsus (Saarbrücken, Germany) as described.[14].

[9] = cited from earlier work
IKZF3-GFP fusion protein = IKZF3-GFP fusion protein (Homo sapiens, UniProt Q96SW2+Q9UKT9); conditions: MM.1S cells, 16 h, 0.1 μM, 1.0 μM and 10 μM
Chain of IKZF3-GFP fusion protein (Q9UKT9 146-168 limits assumed): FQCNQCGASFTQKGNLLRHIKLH
Chain of IKZF3-GFP fusion protein (Q96SW2 whole entry, the tested form may be a part): as the sequence (Q96SW2 whole entry) above
Chain of IKZF3-GFP fusion protein (Q16531 whole entry partner, the tested form may be a part): as the sequence (Q16531 whole entry partner) above
Chain of IKZF3-GFP fusion protein (Q13619 whole entry partner, the tested form may be a part): as the sequence (Q13619 whole entry partner) above
Chain of IKZF3-GFP fusion protein (P62877 whole entry partner, the tested form may be a part): as the sequence (P62877 whole entry partner) above
Procedure: This method distinguished direct effects on protein degradation from effects that regulate transcriptional expression.
In brief, the plasmid comprised the IMiD-binding zinc finger 2 (ZF2) of IKZF3 fused to eGFP with mCherry in vector backbone. MM.1S cells were lentivirally transduced with the IKZF3-ZF2 reporter and treated with respective compounds for 16 hours. Flow cytometry was performed for the quantification of eGFP and mCherry mean fluorescence intensity. The eGFP/mCherry ratio was indicative of IKZF3-ZF2 degradation levels. Compound-treated samples were normalized to DMSO-treated samples. Data was obtained with biological replicates (n=3) and representmean± SD.
The Artichoke reporter assay was performed as described.[14] Briefly, HEK293T cells were transfected and virus was harvested. MM1.S cells were transduced and treated with the test compounds. Cells were measured on a Cytoflex (Beckman Coulter) flow cytometer. Live single cells expressing mCherry were gated for FITC and histograms displaying counts were plotted and quantified.

[10] = Homo sapiens, HUVEC, 18 h, read-out: Inhibition of tube formation (%)

O=C1CCC(N2C(=O)c3ccccc3C2=O)C(=O)N1 (stereo not shown) [Compound 1, thalidomide, reference compound]
Block of tube formation (HUVECs [1]; concentration range 12.5–100 μM): failed to significantly block tube formation
Tube formation IC50 (HUVECs [1]): n.i.^h
chromatographic logD [2]: 0.5
Ki ([3]; read-out: MST Ki): 8.55 µM
Effect on HUVEC proliferation (HUVECs [4]; 100 μM): decreased neither HUVEC proliferation
CHIIAM [5]: 12.5

O=C1CCC(N2C(=O)c3c(F)c(F)c(F)c(F)c3C2=O)C(=O)N1 (stereo not shown) [Compound 2, Tetrafluoro-thalidomide]
Neosubstrate degradation (%) SALL4 (SALL4): <5%
Reduction of MM1.S growth [6]: 95%
Reduction of HUVEC growth (HUVECs [4]; 10 μM): 48%
Antiangiogenic activity in the tube formation assay (HUVECs [7]; 10 μM, HUVECs): significantly inhibited tubule formation
inhibition at 10 µM (HUVECs [7]; [10]): 95.3%
Neosubstrate degradation (%) IKZF3 (IKZF3): <5%
CHIIAM [5]: 17.8

CC(C)N1C(=O)NC(=O)C(C)(N2C(=O)c3ccccc3C2=O)C1=O (stereo not shown) [Compound 3]
Neosubstrate degradation (%) SALL4 (SALL4): <5%
Tube formation IC50 (HUVECs [1]): n.i.
chromatographic logD [2]: 2.2
MST Ki [3]: n.b.^i
Effect on MM1.S cell growth [6]: did not affect HUVEC or MM1.S cell growth
Effect on HUVEC cell growth (HUVECs [4]; 10 μM): did not affect HUVEC or MM1.S cell growth
half-life [8]: > 1 h
microsomal CLint at 1 h [8]: 10.3 µL/min/mg
Neosubstrate degradation (%) IKZF3 (IKZF3): 11%
CHIIAM [5]: 28.9

CC(C)N1C(=O)NC(=O)C(C)(N2C(=O)c3c(F)c(F)c(F)c(F)c3C2=O)C1=O (stereo not shown) [Compound 4]
Neosubstrate degradation (%) SALL4 (SALL4): <5%
elogD7.4 [2]: 3.0
MST Ki [3]: n.b.
Reduction of MM1.S growth [6]: > 95%
Reduction of HUVEC growth (HUVECs [4]; 10 μM): > 95%
half-life [8]: > 1 h
microsomal CLint at 1 h [8]: 4.6 µL/min/mg
Neosubstrate degradation (%) IKZF3 (IKZF3): <5%
CHIIAM [5]: 31.6

O=C1CCC(NC(=O)c2ccccc2)C(=O)N1 (stereo not shown) [Compound 5]
elogD7.4 ([9]; pH 7.4): −0.3^j

O=C1CCC(NC(=O)c2cc(F)c(F)c(F)c2F)C(=O)N1 (stereo not shown) [Compound 6]
elogD7.4 ([9]; pH 7.4, HPLC-based method): 0.9^j

CC(C)N1C(=O)NC(=O)C(C)(NC(=O)c2ccccc2)C1=O (stereo not shown) [Compound 7]
Neosubstrate degradation (%) SALL4 (SALL4): <5%
Tube formation IC50 (HUVECs [1]): n.i.
chromatographic logD [2]: 1.2
MST Ki [3]: n.b.
Neosubstrate degradation (%) IKZF3 (IKZF3): <5%
CHIIAM [5]: 20.9

CC(C)N1C(=O)NC(=O)C(C)(NC(=O)c2cc(F)c(F)c(F)c2F)C1=O (stereo not shown) [Compound 8]
Neosubstrate degradation (%) SALL4 (SALL4): <5%
Tube formation IC50 (HUVECs [1]): n.i.
chromatographic logD [2]: 2.2
MST Ki [3]: n.b.
Neosubstrate degradation (%) IKZF3 (IKZF3): <5%
CHIIAM [5]: 27.9

O=C1CCC(NC(=O)c2ccccc2F)C(=O)N1 (stereo not shown) [Compound 9, N-(2,6-Dioxo-3-piperidyl)-2-fluorobenzamide]
chromatographic logD [2]: -0.1
inhibition at 100 µM (HUVECs [7]; [10]): 13.4%
CHIIAM [5]: 5.7

O=C1CCC(NC(=O)c2cccc(F)c2)C(=O)N1 (stereo not shown) [Compound 10, N-(2,6-Dioxo-3-piperidyl)-3-fluorobenzamide]
chromatographic logD [2]: 0.1
inhibition at 100 µM (HUVECs [7]; [10]): 10.3%
CHIIAM [5]: 10.6

O=C1CCC(NC(=O)c2ccc(F)cc2)C(=O)N1 (stereo not shown) [Compound 11, N-(2,6-Dioxo-3-piperidyl)-4-fluorobenzamide]
chromatographic logD [2]: 0.1
inhibition at 100 µM (HUVECs [7]; [10]): 17.9%
CHIIAM [5]: 10.1

O=C1CCC(NC(=O)c2cccc(F)c2F)C(=O)N1 (stereo not shown) [Compound 12]
chromatographic logD [2]: 0.3
inhibition at 100 µM (HUVECs [7]; [10]): 31.1%
CHIIAM [5]: 7.6

O=C1CCC(NC(=O)c2ccc(F)cc2F)C(=O)N1 (stereo not shown) [Compound 13]
chromatographic logD [2]: 0.3
inhibition at 100 µM (HUVECs [7]; [10]): 35.8%
CHIIAM [5]: 7.2

O=C1CCC(NC(=O)c2cc(F)ccc2F)C(=O)N1 (stereo not shown) [Compound 14]
chromatographic logD [2]: 0.3
inhibition at 100 µM (HUVECs [7]; [10]): 24.2%
CHIIAM [5]: 7.2

O=C1CCC(NC(=O)c2cc(F)cc(F)c2)C(=O)N1 (stereo not shown) [Compound 15]
chromatographic logD [2]: 0.6
inhibition at 100 µM (HUVECs [7]; [10]): 44.3%
CHIIAM [5]: 12.3

O=C1CCC(NC(=O)c2ccc(F)c(F)c2)C(=O)N1 (stereo not shown) [Compound 16]
chromatographic logD [2]: 0.6
inhibition at 100 µM (HUVECs [7]; [10]): 15.5%
CHIIAM [5]: 13.6

O=C1CCC(NC(=O)c2ccc(F)c(F)c2F)C(=O)N1 (stereo not shown) [Compound 17]
chromatographic logD [2]: 0.7
inhibition at 100 µM (HUVECs [7]; [10]): 30.3%
CHIIAM [5]: 12.2

O=C1CCC(NC(=O)c2cc(F)c(F)cc2F)C(=O)N1 (stereo not shown) [Compound 18]
chromatographic logD [2]: 0.6
Inhibition of tube formation (%) (HUVECs [7]; 100 μM, 18 h, HUVECs, relative to vehicle control, n.i. = no inhibition): n.i.^d
CHIIAM [5]: 11.0

O=C1CCC(NC(=O)c2cc(F)c(F)c(F)c2)C(=O)N1 (stereo not shown) [Compound 19]
chromatographic logD [2]: 1
inhibition at 100 µM (HUVECs [7]; [10]): 8.1%
CHIIAM [5]: 17.9

N#Cc1ccc(N2CCN(Cc3ccc(COc4cccc5c4CN([C@H]4CCC(=O)NC4=O)C5=O)cc3)CC2)c(F)c1 [mezigdomide, reference compound]
SALL4 degradation (Western blot, in words) (SALL4): degraded IKZF3 and SALL4
Abundance of IKZF3-GFP (eGFP/mCherry ratio, DMSO-normalized) (IKZF3-GFP fusion protein): induced to a greater extent
IKZF3 degradation (Western blot, in words) (IKZF3): degraded IKZF3 and SALL4

Nc1cccc2c1C(=O)N(C1CCC(=O)NC1=O)C2=O (stereo not shown) [pomalidomide, reference compound]
SALL4 degradation (Western blot, in words) (SALL4): degraded IKZF3 and SALL4
Abundance of IKZF3-GFP (eGFP/mCherry ratio, DMSO-normalized) (IKZF3-GFP fusion protein): induced to a greater extent
IKZF3 degradation (Western blot, in words) (IKZF3): degraded IKZF3 and SALL4
